Results taken from ChEMBL document CHEMBL1143042, “Isolation and syntheses of polymethoxyflavones and hydroxylated polymethoxyflavones as inhibitors of HL-60 cell lines” (Bioorg Med Chem, 2007).
Active and inactive are the calls of the source. The rule behind the calls is not given here.

Assays:
Format in all cases: functional, cell-based
HL-60 [1] = experiment: Antiproliferative activity against HL60 after 24 hrs; details: Homo sapiens, HL-60, 24 h
HL-60 [2] = experiment: Apoptotic activity in HL60 cells after 24 hrs; details: Homo sapiens, HL-60, 24 h
PMN = experiment: Cytotoxicity against human PMN cells at 100 uM

Compound	IC50 (HL-60 [1]) [µM]	AC50 (HL-60 [2]) [µM]	Activity (PMN)
COc1cc(-c2cc(=O)c3c(OC)c(OC)c(OC)c(OC)c3o2)ccc1O	47.4	87.1	inactive
COc1ccc(-c2cc(=O)c3c(OC)c(OC)c(OC)c(OC)c3o2)cc1O	52.7	94.6	inactive
COc1ccc(-c2cc(=O)c3c(O)c(OC)c(OC)cc3o2)cc1OC	> 100	> 100	inactive
COc1ccc(-c2oc3c(OC)c(OC)c(OC)c(O)c3c(=O)c2OC)cc1OC	4.16	5.9	inactive
COc1c(OC)c(OC)c2c(=O)cc(-c3ccc(O)c(O)c3)oc2c1OC	71.2	> 100	inactive
COc1ccc(-c2oc3c(OC)c(OC)c(OC)c(OC)c3c(=O)c2OC)cc1OC [3,5,6,7,8,3',4'-HEPTAMETHOXYFLAVONE]	13.3	33.9	inactive
COc1ccc(-c2cc(=O)c3c(O)c(OC)c(OC)c(OC)c3o2)cc1OC [5-DEMETHYLNOBILETIN]	2.07	5.87	inactive
COc1ccc(-c2oc3cc(OC)c(OC)c(O)c3c(=O)c2OC)cc1OC [ARTEMETIN]	6.44	7.26	inactive
COc1ccc(-c2cc(=O)c3c(O)c(OC)c(OC)c(OC)c3o2)cc1 [GARDENIN B]	> 100	> 100	inactive
COc1cc(-c2cc(=O)c3c(O)c(OC)c(OC)c(OC)c3o2)cc(OC)c1OC [GARDENIN]	> 100	> 100	inactive
COc1ccc(-c2oc3cc(OC)c(OC)c(OC)c3c(=O)c2OC)cc1OC [HEXAMETHOXYFLAVONE]	20.6	92.1	inactive
COc1ccc(-c2oc3c(OC)c(OC)c(OC)c(OC)c3c(=O)c2O)cc1OC [NATSUDAIDAI]	> 100	56.5	inactive
COc1ccc(-c2cc(=O)c3c(OC)c(OC)c(OC)c(OC)c3o2)cc1OC [NOBILETIN]	41.5	> 100	inactive
COc1ccc(-c2cc(=O)c3c(OC)c(OC)c(OC)cc3o2)cc1OC [SINENSETIN]	> 100	> 100	inactive
COc1ccc(-c2cc(=O)c3c(OC)c(OC)c(OC)c(OC)c3o2)cc1 [TANGERETIN]	> 100	> 100	inactive
